How the values were obtained:
[1] = set-up: species or system human; settings: in vivo, sc
[2] = set-up: species or system human; unit not given here; settings: in vivo

## C[C@@H]1[C@H](c2c(F)ccc(F)c2F)C[C@H](NC(=O)c2cnc3c(c2)C[C@@]2(C3)C(=O)Nc3ncccc32)C(=O)N1CC(F)(F)F [atogepant]
[1]
  patient-reported pain: pain free

## onabotulinumtoxinA
[2]
  duration of significant pain alleviation: one to about six
[1]
  patient-reported pain: pain free

B1: erenumab (antibody, chains of the INN, looked up, V domains shown)
VH: QVQLVESGGGVVQPGRSLRLSCAASGFTFSSFGMHWVRQAPGKGLEWVAVISFDGSIKYSVDSVKGRFTISRDNSKNTLFLQMNSLRAEDTAVYYCARDRLNYYDSSGYYHYKYYGMAVWGQGTTVTVSS
VL: QSVLTQPPSVSAAPGQKVTISCSGSSSNIGNNYVSWYQQLPGTAPKLLIYDNNKRPSGIPDRFSGSKSGTSTTLGITGLQTGDEADYYCGTWDSRLSAVVFGGGTKLTVL
[2]
  duration of significant pain alleviation: one to about six
